Series [1] concerns Cotton Aphid (Aphis gossypii). The experiment in a line: Insecticidal test for cotton aphid in a foliar spray assay. Type of series: in vivo. To be noted: 72 h, 200 ppm foliar spray on squash or cotton seedlings, live aphids counted after three days, Abbott's corrected % control, read-out: APHIGO % Ctrl @ 200 ppm. How it is done: Squash or cotton seedlings with fully expanded cotyledon leaves were trimmed to one cotyledon per plant and infested with wingless adult and nymph stage cotton aphid (APHIGO) one day prior to chemical application. Each plant was examined before chemical application to ensure uniform infestation (ca. 30-70 aphids per plant). Compounds (2 mg) were dissolved in 2 mL of acetone/methanol (1:1) solvent, forming stock solutions of 1000 ppm. The stock solutions were diluted 5× with 0.025% Tween 20 in H2O to obtain a solution at 200 ppm. A hand-held Devilbiss aspirator type sprayer was used to apply the spray solutions until runoff to both sides of the squash cotyledon leaves. Four plants (4 replications) were used for each concentration of each compound. Reference plants (solvent check) were sprayed with the diluent only. Treated plants were held in a holding room for three days at approximately 25° C. and 40% RH before the number of live cotton aphids on each plant was recorded. Insecticidal activity data presented in Table 3 were generated by using Abbott's correction formula: Corrected%Control=100*(X−Y)/X • where X=No. of live aphids on solvent check plants • Y=No. of live aphids on treated plants

Series [2] deals with Green Peach Aphid (Myzus persicae). The series can be described thus: Insecticidal test for green peach aphid in foliar spray assay. Type of series: in vivo. To be noted: 72 h, 200 ppm foliar spray on cabbage seedlings, live aphids counted after three days, Abbott's corrected % control, read-out: MYZUPE % Ctrl @ 200 ppm. How it is done: Certain molecules disclosed in this document were tested against MYZUPE using procedures described in the following example. In the reporting of the results, the “MYZUPE, APHIGO and BEMITA Rating Table” was used (See Table Section).
Cabbage seedlings grown in 3-inch pots, with 2-3 small (3-5 cm) true leaves, were used as test substrate. The seedlings were infested with 20-50 green peach aphids (wingless adult and nymph stage) one day prior to chemical application. Four pots with individual seedlings were used for each treatment. Compounds (2 mg) were dissolved in 2 mL of acetone/methanol (1:1) solvent, forming stock solutions of 1000 ppm. The stock solutions were diluted 5× with 0.025% Tween 20 in H2O to obtain the test solution at 200 ppm. A hand-held Devilbiss sprayer was used for spraying a solution to both sides of cabbage leaves until runoff. Reference plants (solvent check) were sprayed with the diluent only. Treated plants were held in a holding room for three days at approximately 25° C. and 40% relative humidity (RH) prior to grading. Evaluation was conducted by counting the number of live aphids per plant under a microscope. Insecticidal activity data presented in Table 3 were generated by using Abbott's correction formula: Corrected%Control=100*(X−Y)/X • where X=No. of live aphids on solvent check plants • Y=No. of live aphids on treated plants

For series [3], the system named is Sweetpotato Whitefly (Bemisia tabaci). The series can be described thus: Insecticidal test for sweetpotato whitefly in foliar spray assay. It counts as in vivo. To be noted: 200 ppm foliar spray on cotton plants infested with eggs, live nymphs counted after 8-9 days, Abbott's corrected % control, read-out: BEMITA % Ctrl @ 200 ppm. How it is done:
Cotton plants were used as test substrate and were grown in 3-inch pots and pruned until only 1 small (3-5 cm) true leaf remained. The plants were then placed in a room with whitefly ([…]) adults and allowed to be infested with eggs. After a 2-3 day egg-laying period, plants were taken from the adult whitefly room and the adults were removed from the leaves using compressed air delivered through a hand-held Devilbiss sprayer (23 psi). Plants infested with eggs (100-300 eggs per plant) were placed in a controlled-environment room for 5-6 days at 82° F. and 50% RH until approximately 50% egg hatch. Four cotton plants (4 replicates) were used for each treatment. Compounds (2 mg) were dissolved in 1 mL of acetone solvent, forming stock solutions of 2000 ppm. The stock solutions were diluted 10× with 0.025% Tween 20 in H2O to obtain the test solution of 200 ppm. A hand-held Devilbiss sprayer was used for spraying a solution to both sides of cotton leaf until runoff. Reference plants (solvent check) were sprayed with the diluent only. Treated plants were held in a holding room for 8-9 days at approximately 82° F. and 50% RH prior to grading. Evaluation was conducted by counting the number of live nymphs per plant under a microscope. Insecticidal activity data presented in Table 3 were generated by using Abbott's correction formula: Corrected%Control=100*(X-Y)/X • where X=No. of live nymphs on solvent check plants • Y=No. of live nymphs on treated plants […]

Turning to `CSCCC(=O)N(C)c1nnc(-c2cccnc2)s1` [Compound 1], the melting point (usually the temperature, or range, at which the solid turns liquid) lay in the range of 99 to 101 °C. Also, the inhibition at 200 ppm in series [1] lay in the range of 80 to 100%. In addition, the inhibition at 200 ppm in series [2] lay in the range of 80 to 100%. Moreover, in series [3], the inhibition at 200 ppm was in the range of 0 to 80%.
With `CCSCCC(=O)N(C)c1nnc(-c2cccnc2)s1` [Compound 2], the melting point is 70 to 72 °C. For the same compound, the inhibition at 200 ppm in series [1] lay in the range of 80 to 100%. Moreover, in series [2], the inhibition at 200 ppm lay within 80 to 100%. For the same compound, the inhibition at 200 ppm in series [3] was in the range of 0 to 80%.
Compound `COCCC(=O)N(C)c1nnc(-c2cccnc2)s1` [Compound 3] displayed a melting point of 92 to 97.5 °C. The inhibition at 200 ppm in series [1] lay within 80 to 100%. In series [2], the inhibition at 200 ppm fell in the range of 80 to 100%. Also, in series [3], the inhibition at 200 ppm was in the range of 0 to 80%.
Regarding `CC(C)SCCC(=O)N(C)c1nnc(-c2cccnc2)s1` [Compound 4], the melting point is 100 to 105 °C. For the same compound, the inhibition at 200 ppm in series [1] is 80 to 100%. For the same compound, the inhibition at 200 ppm in series [2] was in the range of 80 to 100%. In addition, the inhibition at 200 ppm in series [3] was in the range of 0 to 80%.
On to `CN(C(=O)CCSCCc1ccccc1)c1nnc(-c2cccnc2)s1` [Compound 5], for which the melting point lay in the range of 105 to 108 °C. Moreover, in series [1], the inhibition at 200 ppm was 0 to 80%. Moreover, the inhibition at 200 ppm in series [2] was 0 to 80%. Moreover, in series [3], the inhibition at 200 ppm was in the range of 0 to 80%.
Take `CSCCCC(=O)N(C)c1nnc(-c2cccnc2)s1` [Compound 6]: the melting point fell in the range of 93 to 95 °C. Moreover, the inhibition at 200 ppm in series [1] lay in the range of 80 to 100%. In series [2], the inhibition at 200 ppm was in the range of 80 to 100%. Moreover, the inhibition at 200 ppm in series [3] lay within 0 to 80%.
Consider `CSCCC(=O)Nc1nnc(-c2cccnc2)s1` [Compound 7], for which the melting point was in the range of 211 to 212 °C. Besides, in series [1], the inhibition at 200 ppm is 0 to 80%. In addition, the inhibition at 200 ppm in series [2] fell in the range of 0 to 80%. Also, the inhibition at 200 ppm in series [3] is 0 to 80%.
As to `CCSC(C)CC(=O)N(C)c1nnc(-c2cccnc2)s1` (stereo not shown) [Compound 13], the figures for the inhibition at 200 ppm in series [1], in series [2] and in series [3] were 80 to 100%, 80 to 100% and 0 to 80%, respectively.
For the compound `CCSCC(C)(C)C(=O)N(C)c1nnc(-c2cccnc2)s1` [Compound 17], the values for the inhibition at 200 ppm in series [1], in series [2] and in series [3] were 80 to 100%, 80 to 100% and 0 to 80%, respectively.
Consider `CSCC(C)C(=O)N(C)c1nnc(-c2cccnc2)s1` (stereo not shown) [Compound 28, N-2-Dimethyl-3-(methylthio)-N-(5-(pyridin-3-yl)-1,3,4-thiadiazol-2-yl)propanamide], for which the inhibition at 200 ppm in series [1] is 80 to 100%; in series [2] it was 80 to 100%; in series [3] it was 0 to 80%.
Turning to `CN(C(=O)C(C)(C)C[S+](C)[O-])c1nnc(-c2cccnc2)s1` (stereo not shown) [Compound 32], the inhibition at 200 ppm in series [1], in series [2] and in series [3] was 80 to 100% throughout.
With `CN(C(=O)C(C)(C)CS(C)(=O)=O)c1nnc(-c2cccnc2)s1` [Compound 33], the inhibition at 200 ppm in series [1] is 80 to 100%; in series [2], 80 to 100%; in series [3] it was 0 to 80%.
As to `CC(CS(C)(=O)=O)C(=O)N(C)c1nnc(-c2cccnc2)s1` (stereo not shown) [Compound 37], the inhibition at 200 ppm in series [1] was in the range of 80 to 100%; in series [2], 80 to 100%; in series [3], 0 to 80%.
On to `CN(C(=O)C(C)(C)CS(C)(=O)=NC#N)c1nnc(-c2cccnc2)s1` (stereo not shown) [Compound 42, N-2,2-trimethyl-3-(methyl-N-cyano-sulfoximinyl)-N-(5-(pyridin-3-yl)-1,3,4-thiadiazol-2-yl)propanamide], for which the inhibition at 200 ppm was in the range of 0 to 80% in series [1], 80 to 100% in series [2] and 0 to 80% in series [3].
`CN(C(=O)C1(CS(C)(=O)=O)CC1)c1nnc(-c2cccnc2)s1` [Compound 46] had a melting point of 208 to 212 °C. Besides, the inhibition at 200 ppm in series [1] fell in the range of 80 to 100%. For the same compound, in series [3], the inhibition at 200 ppm lay in the range of 0 to 80%.
With `CCC(CC)(CSC)C(=O)N(C)c1nnc(-c2cccnc2)s1` [Compound 53], the inhibition at 200 ppm is 80 to 100% in series [1], 0 to 80% in series [2] and 0 to 80% in series [3].
As to `CSCCOC(=O)N(C)c1nnc(-c2cncc(F)c2)s1` [Compound 78, [5-(5-fluoropyridin-3-yl)-[1,3,4]thiadiazol-2-yl]-methylcarbamic acid 2-methylsulfanyl-ethyl ester], the melting point lay in the range of 104 to 106 °C. In series [2], the inhibition at 200 ppm is 80 to 100%. For the same compound, the inhibition at 200 ppm in series [3] lay in the range of 80 to 100%.
Regarding `CSCCNC(=O)N(C)c1nnc(-c2cncc(F)c2)s1` [Compound 79, 1-[5-(5-fluoro-pyridin-3-yl)-[1,3,4]thiadiazol-2-yl]-1-methyl-3-(2-methylsulfanyl-ethyl)-urea], the melting point was 100 to 104 °C. The inhibition at 200 ppm in series [2] was in the range of 80 to 100%. In addition, the inhibition at 200 ppm in series [3] is 0 to 80%.
`CCOC(=S)N(C)c1nnc(-c2cncc(F)c2)s1` [Compound 80, [5-(5-fluoro-pyridin-3-yl)-[1,3,4]thiadiazol-2-yl]-methyl-thiocarbamic acid ethyl ester]: the melting point lay within 137 to 140 °C. Moreover, in series [2], the inhibition at 200 ppm fell in the range of 80 to 100%. Further, the inhibition at 200 ppm in series [3] is 0 to 80%.
The compound `CN(C(=O)CSCc1ccccc1)c1nnc(-c2cncc(F)c2)s1` [Compound 84] yielded a melting point of 145 to 147 °C. Besides, the inhibition at 200 ppm in series [2] fell in the range of 0 to 80%. Moreover, the inhibition at 200 ppm in series [3] lay in the range of 0 to 80%.
`CSCCOC(=S)N(C)c1nnc(-c2cncc(F)c2)s1` [Compound 85, [5-(5-fluoro-pyridin-3-yl)-[1,3,4]thiadiazol-2-yl]-methyl-thiocarbamic acid 2-methylsulfanyl-ethyl ester] registered a melting point of 150 to 152 °C. Also, the inhibition at 200 ppm in series [2] is 0 to 80%. Also, in series [3], the inhibition at 200 ppm is 0 to 80%.
In turn, `CSCC(C)(C#N)C(=O)N(C)c1nnc(-c2cncc(F)c2)s1` (stereo not shown) [Compound 88] returned a melting point of 109 to 111 °C. Besides, the inhibition at 200 ppm in series [2] lay within 80 to 100%. In addition, in series [3], the inhibition at 200 ppm fell in the range of 0 to 80%.
Take `CSCC(C)(CN)C(=O)N(C)c1nnc(-c2cncc(F)c2)s1` (stereo not shown) [Compound 89, 2-(aminomethyl)-N-[5-(5-fluoro-3-pyridyl)-1,3,4-thiadiazol-2-yl]-N,2-dimethyl-3-methylsulfanyl-propanamide]: the melting point lay within 154 to 157 °C. The inhibition at 200 ppm in series [2] fell in the range of 0 to 80%. Further, the inhibition at 200 ppm in series [3] lay in the range of 0 to 80%.
Compound `CSCC(C)(C)C(=O)OCC(C)(C)C(=O)N(C)c1nnc(-c2cncc(F)c2)s1` [Compound 91] came in with a melting point of 90 to 93 °C. Further, the inhibition at 200 ppm in series [2] lay in the range of 80 to 100%. Besides, the inhibition at 200 ppm in series [3] was 80 to 100%.
Turning to `CSCC(C)C(=O)Nc1nnc(-c2cccnc2)s1` (stereo not shown) [Compound 92], the melting point is 176 °C. Besides, the inhibition at 200 ppm in series [2] lay in the range of 0 to 80%. Also, the inhibition at 200 ppm in series [3] was in the range of 0 to 80%.
In the case of `C=CCSCC(C)C(=O)N(C)c1nnc(-c2cccnc2)s1` (stereo not shown) [Compound 94], the melting point was in the range of 43 to 46 °C. In addition, the inhibition at 200 ppm in series [2] fell in the range of 80 to 100%. In series [3], the inhibition at 200 ppm was in the range of 80 to 100%.
In turn, `COCCNC(=S)N(C)c1nnc(-c2cccnc2)s1` [Compound 95] registered a melting point of 118 to 121 °C. For the same compound, the inhibition at 200 ppm in series [2] is 80 to 100%. Moreover, in series [3], the inhibition at 200 ppm was 0 to 80%.

The values above are taken from US8912338B2, “Pesticidal compositions” (Dow AgroSciences LLC, priority 2010, dated 2014).
